In patent US20020137929A1, “1 - (3-heterocyclylphenyl) isothiourea, -isourea, -guanidine and -amidine herbicidal agents” (Intellectual Property Department, BASF Aktiengesellschaft, priority 1998, published 2002):

How the values were obtained:
[1] = test system: ECHORC (Watergrass (Calif.)); test: Postemergence weed control under flooded paddy conditions; format: in vivo, Echinochloa oryzoides; settings: postemergence weeds
How it was run: (§1)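 Herbicidal effect is judged by eye on a 0–9 scale versus control, 3–4 weeks after dosing. Dosing is into flood water kept 1.5–3 cm over the soil, at about 0.0313–0.500 kg/ha in aqueous/acetone 50/50 v/v, on 3–5 cm weeds and 1.5–2.5-leaf rice seedlings.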

SETVI (Foxtail, Green) = test: Postemergence herbicidal evaluation; format: in vivo, Setaria viridis; settings: for Herbicidal rating SETVI: postemergence
How it was run: (§2)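 Two-week seedlings sprayed postemergence at 40 psi; formulation: 1:1 acetone/water, 0.5% TWEEN 20; application ≈0.0156–0.500 kg/ha. Greenhouse grow-out, then 0–9 visual scoring at 4–5 weeks.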

GALAP (Galium) = test: Postemergence herbicidal evaluation; format: in vivo, Galium aparine; settings: for Herbicidal rating GALAP: postemergence
How it was run: as §2

[2] = test system: ECHORC (Watergrass (Calif.)); test: Preemergence weed control under flooded paddy conditions; format: in vivo, Echinochloa oryzoides; settings: rated 3-4 weeks after treatment
How it was run: (§3)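 Visual injury scored 0-9 against control three to four weeks post-treatment, greenhouse-grown. Application: acetone/water (50/50) solutions dosed directly into flood water (1.5-3 cm over silt loam, planted top 0.5 cm), roughly 0.0313 to 0.500 kg/ha active ingredient.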

[3] = test system: IPOHE (Morningglory, Ivyleaf); test: Postemergence herbicidal evaluation; format: in vivo, Ipomoea hederacea; settings: for Herbicidal rating IPOHE: postemergence
How it was run: as §2

CYPIR (Rice Flatsedge) = test: Preemergence weed control under flooded paddy conditions; format: in vivo, Cyperus iria; settings: rated 3-4 weeks after treatment
How it was run: as §3

MOOVA (Monochoria) = test: as above; format: in vivo, Monochoria vaginalis; settings: rated 3-4 weeks after treatment
How it was run: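 Using flooded silt loam (water 1.5 to 3 cm deep), seeds sown in the top 0.5 cm were exposed preemergence to compound pipetted into the flood at about 0.0313 to 0.500 kg/ha. Effects were scored 0-9 by eye three to four weeks later.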

[4] = test system: TRZAWR (Wheat, Winter, cv Riband); test: Postemergence herbicidal evaluation; format: in vivo, Triticum aestivum; settings: for Herbicidal rating TRZAWR: postemergence
How it was run: as §2

[5] = test system: SAGPY (Arrowhead (Pygmaea)); test: Postemergence weed control under flooded paddy conditions; format: in vivo, Sagittaria pygmaea; settings: postemergence weeds
How it was run: as §1

[6] = Rate 0.0313 kg/ha, rated 3 to 4 weeks after treatment
[7] = Rate 0.0625 kg/ha, rated 3 to 4 weeks after treatment
[8] = Rate 0.1250 kg/ha, rated 3 to 4 weeks after treatment
[9] = Rate 0.2500 kg/ha, rated 3 to 4 weeks after treatment
[10] = Rate 0.5000 kg/ha, rated 3 to 4 weeks after treatment
[11] = rate 0.0313 kg/ha, 3-4 weeks after treatment
[12] = rate 0.0625 kg/ha, 3-4 weeks after treatment
[13] = rate 0.1250 kg/ha, 3-4 weeks after treatment
[14] = rate 0.2500 kg/ha, 3-4 weeks after treatment

C=CCN1C(=O)C(CC(=O)NS(=O)(=O)c2ccccc2)SC1=Nc1cc(-n2c(=O)cc(C(F)(F)F)n(C)c2=O)c(F)cc1Cl (centres unmarked) [Compound 101, 3-Allyl-2-{{2-chloro-5-[3,6-dihydro-3-methyl-2,6-dioxo-4-(trifluoromethyl)-1(2H)-pyrimidinyl]-4-fluorophenyl}imino}-4-oxo-N-(phenylsulfonyl)-5-thiazolidineacetamide]
5.0: Herbicidal rating SETVI (SETVI (Foxtail, Green); rate 0.0625 kg/ha) | Herbicidal rating SETVI (SETVI (Foxtail, Green); rate 0.1250 kg/ha) | MOOVA herbicidal effect rating (MOOVA (Monochoria); 0.0313 kg/ha) | MOOVA herbicidal effect rating (MOOVA (Monochoria); 0.0625 kg/ha) | Herbicidal rating TRZAWR ([4]; rate 0.1250 kg/ha)
1.0: Herbicidal rating SETVI (SETVI (Foxtail, Green); rate 0.0313 kg/ha) | Herbicidal rating GALAP (GALAP (Galium); rate 0.0313 kg/ha) | Herbicidal rating GALAP (GALAP (Galium); rate 0.0625 kg/ha)
0.0: Herbicidal rating ECHORC [1, 6] | Herbicidal rating ECHORC [1, 7] | Herbicidal rating ECHORC [1, 8] | Herbicidal rating ECHORC [1, 9] | Herbicidal rating ECHORC [1, 10] | Herbicidal rating GALAP (GALAP (Galium); rate 0.0156 kg/ha) | ECHORC herbicidal effect rating ([2]; 0.0313 kg/ha) | ECHORC herbicidal effect rating ([2]; 0.0625 kg/ha) | ECHORC herbicidal effect rating ([2]; 0.1250 kg/ha) | ECHORC herbicidal effect rating ([2]; 0.2500 kg/ha) | ECHORC herbicidal effect rating ([2]; 0.5000 kg/ha) | CYPIR herbicidal effect rating (CYPIR (Rice Flatsedge); 0.0313 kg/ha) | CYPIR herbicidal effect rating (CYPIR (Rice Flatsedge); 0.0625 kg/ha) | CYPIR herbicidal effect rating (CYPIR (Rice Flatsedge); 0.1250 kg/ha) | Herbicidal rating SAGPY [5, 6] | Herbicidal rating SAGPY [5, 7] | Herbicidal rating SAGPY [5, 8]
3.0: CYPIR herbicidal effect rating (CYPIR (Rice Flatsedge); 0.2500 kg/ha) | Herbicidal rating TRZAWR ([4]; rate 0.0156 kg/ha)
9.0: Herbicidal rating IPOHE ([3]; rate 0.0313 kg/ha) | Herbicidal rating IPOHE ([3]; rate 0.0625 kg/ha) | Herbicidal rating IPOHE ([3]; rate 0.1250 kg/ha) | MOOVA herbicidal effect rating (MOOVA (Monochoria); 0.2500 kg/ha) | MOOVA herbicidal effect rating (MOOVA (Monochoria); 0.5000 kg/ha)
2.0: Herbicidal rating SETVI (SETVI (Foxtail, Green); rate 0.0156 kg/ha) | Herbicidal rating GALAP (GALAP (Galium); rate 0.1250 kg/ha) | Herbicidal rating SAGPY [5, 9]
7.0: MOOVA herbicidal effect rating (MOOVA (Monochoria); 0.1250 kg/ha)
4.0: Herbicidal rating IPOHE ([3]; rate 0.0156 kg/ha) | CYPIR herbicidal effect rating (CYPIR (Rice Flatsedge); 0.5000 kg/ha) | Herbicidal rating TRZAWR ([4]; rate 0.0625 kg/ha) | Herbicidal rating SAGPY [5, 10]
3.5: Herbicidal rating TRZAWR ([4]; rate 0.0313 kg/ha)

CCOC(=O)CN1C(=O)C(CC(=O)OC(C)C)SC1=Nc1cc(-n2c(=O)cc(C(F)(F)F)n(C)c2=O)c(F)cc1Cl (centres unmarked) [Compound 55, 2-{{2-Chloro-5-[3,6-dihydro-3-methyl-2,6-dioxo-4-(trifluoromethyl)-1(2H)-pyrimidinyl]-4-fluoro-phenyl}imino}-4-oxo-3,5-thiazolidinediacetic acid, 3-ethyl isopropyl ester]
6.0: Postemergence herbicidal rating GALAP (GALAP (Galium); Rate 0.0158 kg/ha)
6.8: Postemergence herbicidal rating TRZAWR ([4]; Rate 0.0313 kg/ha)
0.0: Herbicidal rating SAGPY [5, 11] | Herbicidal rating SAGPY [5, 12] | Herbicidal rating SAGPY [5, 13] | Herbicidal rating SAGPY [5, 14]
7.0: Herbicidal rating ECHORC [1, 11] | Herbicidal rating ECHORC [1, 12] | Herbicidal rating ECHORC [1, 13] | Herbicidal rating ECHORC [1, 14] | Postemergence herbicidal rating GALAP (GALAP (Galium); Rate 0.0625 kg/ha) | Herbicidal rating ECHORC ([2]; 0.0313 kg/ha) | Herbicidal rating ECHORC ([2]; 0.0625 kg/ha) | Herbicidal rating ECHORC ([2]; 0.1250 kg/ha) | Herbicidal rating ECHORC ([2]; 0.2500 kg/ha)
9.0: Postemergence herbicidal rating SETVI (SETVI (Foxtail, Green); Rate 0.0158 kg/ha) | Postemergence herbicidal rating SETVI (SETVI (Foxtail, Green); Rate 0.0313 kg/ha) | Postemergence herbicidal rating SETVI (SETVI (Foxtail, Green); Rate 0.0625 kg/ha) | Postemergence herbicidal rating SETVI (SETVI (Foxtail, Green); Rate 0.1250 kg/ha) | Postemergence herbicidal rating SETVI (SETVI (Foxtail, Green); Rate 0.2500 kg/ha) | Postemergence herbicidal rating GALAP (GALAP (Galium); Rate 0.1250 kg/ha) | Postemergence herbicidal rating GALAP (GALAP (Galium); Rate 0.2500 kg/ha) | Postemergence herbicidal rating IPOHE ([3]; Rate 0.0158 kg/ha) | Postemergence herbicidal rating IPOHE ([3]; Rate 0.0313 kg/ha) | Postemergence herbicidal rating IPOHE ([3]; Rate 0.0625 kg/ha) | Postemergence herbicidal rating IPOHE ([3]; Rate 0.1250 kg/ha) | Postemergence herbicidal rating IPOHE ([3]; Rate 0.2500 kg/ha) | Herbicidal rating CYPIR (CYPIR (Rice Flatsedge); 0.0313 kg/ha) | Herbicidal rating CYPIR (CYPIR (Rice Flatsedge); 0.0625 kg/ha) | Herbicidal rating CYPIR (CYPIR (Rice Flatsedge); 0.1250 kg/ha) | Herbicidal rating CYPIR (CYPIR (Rice Flatsedge); 0.2500 kg/ha) | Herbicidal rating MOOVA (MOOVA (Monochoria); 0.0313 kg/ha) | Herbicidal rating MOOVA (MOOVA (Monochoria); 0.0625 kg/ha) | Herbicidal rating MOOVA (MOOVA (Monochoria); 0.1250 kg/ha) | Herbicidal rating MOOVA (MOOVA (Monochoria); 0.2500 kg/ha)
5.5: Postemergence herbicidal rating TRZAWR ([4]; Rate 0.0158 kg/ha)
7.5: Postemergence herbicidal rating TRZAWR ([4]; Rate 0.0625 kg/ha) | Postemergence herbicidal rating TRZAWR ([4]; Rate 0.1250 kg/ha) | Postemergence herbicidal rating TRZAWR ([4]; Rate 0.2500 kg/ha)
3.3: Postemergence herbicidal rating GALAP (GALAP (Galium); Rate 0.0313 kg/ha)

2-{{2-Chloro-5-[3,6-dihydro-3-methyl-2,6-dioxo-4-(trifluoromethyl)-1(2H)-pyrimidinyl]-4-fluoro-phenyl}imino}-4-oxo-3,5-thiazolidenediacetic acid, 3-ethyl (2-propynyl) ester, (2:1) mixture with di-2-propynyl ester [Compound 58]
0.0: CYPIR herbicidal effect rating (CYPIR (Rice Flatsedge); 0.0313 kg/ha) | Herbicidal rating CYPIR (CYPIR (Rice Flatsedge); 0.0625 kg/ha) | MOOVA herbicidal effect rating (MOOVA (Monochoria); 0.0313 kg/ha) | Herbicidal rating MOOVA (MOOVA (Monochoria); 0.0625 kg/ha) | Herbicidal rating SAGPY [5, 11] | Herbicidal rating SAGPY [5, 12] | Herbicidal rating SAGPY [5, 13]
4.0: Herbicidal rating SAGPY [5, 14]
7.0: Herbicidal rating ECHORC [1, 11] | Herbicidal rating ECHORC [1, 12] | Herbicidal rating ECHORC [1, 13] | ECHORC herbicidal effect rating ([2]; 0.0313 kg/ha) | Herbicidal rating ECHORC ([2]; 0.0625 kg/ha) | Herbicidal rating ECHORC ([2]; 0.1250 kg/ha)
9.0: Herbicidal rating ECHORC [1, 14] | Postemergence herbicidal rating SETVI (SETVI (Foxtail, Green); Rate 0.0158 kg/ha) | Postemergence herbicidal rating SETVI (SETVI (Foxtail, Green); Rate 0.0315 kg/ha) | Postemergence herbicidal rating SETVI (SETVI (Foxtail, Green); Rate 0.0630 kg/ha) | Postemergence herbicidal rating GALAP (GALAP (Galium); Rate 0.0630 kg/ha) | Herbicidal rating ECHORC ([2]; 0.2500 kg/ha) | Postemergence herbicidal rating IPOHE ([3]; Rate 0.0158 kg/ha) | Postemergence herbicidal rating IPOHE ([3]; Rate 0.0315 kg/ha) | Postemergence herbicidal rating IPOHE ([3]; Rate 0.0630 kg/ha) | Herbicidal rating MOOVA (MOOVA (Monochoria); 0.2500 kg/ha)
3.0: Postemergence herbicidal rating GALAP (GALAP (Galium); Rate 0.0315 kg/ha) | Herbicidal rating CYPIR (CYPIR (Rice Flatsedge); 0.2500 kg/ha) | Herbicidal rating MOOVA (MOOVA (Monochoria); 0.1250 kg/ha)
1.0: Postemergence herbicidal rating GALAP (GALAP (Galium); Rate 0.0158 kg/ha)
2.0: Herbicidal rating CYPIR (CYPIR (Rice Flatsedge); 0.1250 kg/ha)
5.0: Postemergence herbicidal rating TRZAWR ([4]; Rate 0.0158 kg/ha) | Postemergence herbicidal rating TRZAWR ([4]; Rate 0.0315 kg/ha)
7.5: Postemergence herbicidal rating TRZAWR ([4]; Rate 0.0630 kg/ha)
